In ChEMBL document CHEMBL6114968, “Discovery of BW710 as a potent, selective and orally bioavailable fibroblast growth factor receptor 2 (FGFR2) inhibitor” (Eur J Med Chem, 2025):
Blank lines part the entries; values can stand above or below the compound they belong to.

Key:
BaF3 [1] = assay: Antiproliferative activity against mouse BaF3 cells expressing FGFR2 incubated for 72 hrs by CCK-8 assay; type: functional, cell-based; details: BaF3, 72 h
BaF3 [2] = assay: Antiproliferative activity against mouse BaF3 cells expressing FGFR1 incubated for 72 hrs by CCK-8 assay; type: functional, cell-based; details: BaF3, 72 h
BaF3 [3] = assay: Antiproliferative activity against mouse BaF3 cells incubated for 72 hrs by CCK-8 assay; details: BaF3, 72 h
[4] = Antiproliferative activity against FGFR2 amplified human SNU-16 cells measured after 72 hrs by CCK-8 assay; type: functional, cell-based; details: SNU-16, 72 h
[5] = Antiproliferative activity against FGFR2 amplified human KATO III stomach cancer cell line measured after 72 hrs by CCK-8 assay; type: functional, cell-based
A204 = assay: Antiproliferative activity against FGFR1 amplified human A204 cells measured after 72 hrs by CCK-8 assay; type: functional, cell-based; details: A204, 72 h
[6] = Antiproliferative activity against human RT-112 cells harboring FGFR3-TACC3 measured after 72 hrs by CCK-8 assay; type: functional, cell-based; details: RT-112, 72 h
MDA-MB-453 = assay: Antiproliferative activity against human MDA-MB-453 cells harboring FGFR4-Y367C measured after 72 hrs by CCK-8 assay; type: functional, cell-based; details: MDA-MB-453, 72 h
[7] = target: Fibroblast growth factor receptor 1 (Homo sapiens) (UniProt P11362); assay: Inhibition of FGFR1 (unknown origin) at 1 uM by KINOMEscan analysis relative to control
[8] = target: Fibroblast growth factor receptor 2 (Homo sapiens) (UniProt P21802); assay: Inhibition of FGFR2 (unknown origin) at 1 uM by KINOMEscan analysis relative to control
[9] = target: Fibroblast growth factor receptor 3 (Homo sapiens) (UniProt P22607); assay: Inhibition of FGFR3 (unknown origin) at 1 uM by KINOMEscan analysis relative to control
[10] = target: Fibroblast growth factor receptor 4 (Homo sapiens) (UniProt P22455); assay: Inhibition of FGFR4 (unknown origin) at 1 uM by KINOMEscan analysis relative to control
[11] = target: Fibroblast growth factor receptor 2 (Homo sapiens) (UniProt P21802); assay: Inhibition of FGFR2 phosphorylation in human SNU-16 cells incubated for 1 hr by Western blot analysis; type: cell-based; details: dose 0.5-100 nM
[12] = target: Fibroblast growth factor receptor 2 (Homo sapiens) (UniProt P21802); assay: Inhibition of FGFR2 in human SNU-16 cells assessed as decrease in FRS2-alpha phosphorylation at Tyr436 residue incubated for 1 hr by Western blot analysis; type: cell-based; details: dose 0.5-100 nM
[13] = target: Fibroblast growth factor receptor 2 (Homo sapiens) (UniProt P21802); assay: Inhibition of FGFR2 in human SNU-16 cells assessed as decrease in Akt phosphorylation at Ser473 residue incubated for 1 hr by Western blot analysis; type: cell-based; details: dose 0.5-100 nM
[14] = target: Fibroblast growth factor receptor 2 (Homo sapiens) (UniProt P21802); assay: Inhibition of FGFR2 in human SNU-16 cells assessed as decrease in ERK1/2 phosphorylation incubated for 1 hr by Western blot analysis; type: cell-based; details: dose 0.5-100 nM
[15] = Half life in mouse at 1 mg/kg, iv; type: ADME, organism-based; details: in vivo
[16] = Cmax in mouse at 1 mg/kg, iv; type: ADME, organism-based; details: in vivo
[17] = Clearance in mouse at 1 mg/kg, iv; type: ADME, organism-based; details: in vivo
[18] = AUC(0 to t) in mouse at 1 mg/kg, iv; type: ADME, organism-based; details: in vivo
[19] = MRT(0 to t) in mouse at 1 mg/kg, iv; type: ADME, organism-based; details: in vivo
[20] = Half life in mouse at 10 mg/kg, po; type: ADME, organism-based; details: in vivo
[21] = Cmax in mouse at 10 mg/kg, po; type: ADME, organism-based; details: in vivo
[22] = AUC(0 to t) in mouse at 10 mg/kg, po; type: ADME, organism-based; details: in vivo
[23] = MRT(0 to t) in mouse at 10 mg/kg, po; type: ADME, organism-based; details: in vivo
[24] = Oral bioavailability in mouse at 10 mg/kg; type: ADME, organism-based; details: in vivo
[25] = Selectivity ratio of IC50 for antiproliferative activity against mouse BaF3 cells expressing FGFR1 to IC50 for antiproliferative activity against mouse BaF3 cells expressing FGFR2; type: functional

Sequence of Fibroblast growth factor receptor 2 (Homo sapiens) (P21802 22-821 limits assumed): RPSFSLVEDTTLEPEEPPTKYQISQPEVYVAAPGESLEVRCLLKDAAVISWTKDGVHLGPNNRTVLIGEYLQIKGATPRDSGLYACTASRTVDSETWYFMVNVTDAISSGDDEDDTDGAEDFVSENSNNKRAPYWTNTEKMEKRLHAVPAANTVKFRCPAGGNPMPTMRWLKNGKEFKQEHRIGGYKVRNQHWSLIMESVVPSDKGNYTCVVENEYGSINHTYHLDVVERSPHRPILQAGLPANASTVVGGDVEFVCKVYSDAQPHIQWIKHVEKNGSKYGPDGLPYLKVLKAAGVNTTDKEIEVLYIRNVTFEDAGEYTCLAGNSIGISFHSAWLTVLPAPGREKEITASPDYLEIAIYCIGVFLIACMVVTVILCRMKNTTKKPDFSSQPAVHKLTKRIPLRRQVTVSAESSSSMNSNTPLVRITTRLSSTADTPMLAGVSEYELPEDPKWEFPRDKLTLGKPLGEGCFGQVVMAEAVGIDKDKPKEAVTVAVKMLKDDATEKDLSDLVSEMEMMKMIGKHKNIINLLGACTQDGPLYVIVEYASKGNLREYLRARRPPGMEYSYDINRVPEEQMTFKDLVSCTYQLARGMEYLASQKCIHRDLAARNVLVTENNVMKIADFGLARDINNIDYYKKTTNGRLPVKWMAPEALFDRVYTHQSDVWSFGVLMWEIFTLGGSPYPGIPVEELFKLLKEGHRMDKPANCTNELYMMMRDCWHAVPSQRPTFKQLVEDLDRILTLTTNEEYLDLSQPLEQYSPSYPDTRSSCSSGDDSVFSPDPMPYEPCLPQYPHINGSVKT
Sequence of Fibroblast growth factor receptor 1 (Homo sapiens) (P11362 22-822 limits assumed): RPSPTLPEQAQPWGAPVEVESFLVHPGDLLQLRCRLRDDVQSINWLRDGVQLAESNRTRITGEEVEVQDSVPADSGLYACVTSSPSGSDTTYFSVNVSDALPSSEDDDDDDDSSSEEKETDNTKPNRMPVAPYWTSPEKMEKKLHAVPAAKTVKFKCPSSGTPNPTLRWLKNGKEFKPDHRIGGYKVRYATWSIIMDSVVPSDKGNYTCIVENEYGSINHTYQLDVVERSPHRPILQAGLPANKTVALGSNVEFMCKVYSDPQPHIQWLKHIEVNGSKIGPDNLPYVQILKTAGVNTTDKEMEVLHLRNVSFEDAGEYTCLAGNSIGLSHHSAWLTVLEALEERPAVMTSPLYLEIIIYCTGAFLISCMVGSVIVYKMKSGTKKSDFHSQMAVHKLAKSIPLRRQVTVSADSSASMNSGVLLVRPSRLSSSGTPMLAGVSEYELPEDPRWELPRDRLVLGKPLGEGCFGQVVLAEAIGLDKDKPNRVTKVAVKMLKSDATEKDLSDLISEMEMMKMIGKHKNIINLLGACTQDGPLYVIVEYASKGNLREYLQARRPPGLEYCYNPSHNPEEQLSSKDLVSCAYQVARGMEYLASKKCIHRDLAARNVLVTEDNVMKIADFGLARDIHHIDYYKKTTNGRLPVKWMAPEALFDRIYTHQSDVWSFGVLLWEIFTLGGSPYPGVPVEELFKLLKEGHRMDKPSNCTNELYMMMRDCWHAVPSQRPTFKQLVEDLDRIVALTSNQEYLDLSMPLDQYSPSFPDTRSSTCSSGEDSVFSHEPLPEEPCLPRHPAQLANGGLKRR
Sequence of Fibroblast growth factor receptor 4 (Homo sapiens) (P22455 22-802 limits assumed): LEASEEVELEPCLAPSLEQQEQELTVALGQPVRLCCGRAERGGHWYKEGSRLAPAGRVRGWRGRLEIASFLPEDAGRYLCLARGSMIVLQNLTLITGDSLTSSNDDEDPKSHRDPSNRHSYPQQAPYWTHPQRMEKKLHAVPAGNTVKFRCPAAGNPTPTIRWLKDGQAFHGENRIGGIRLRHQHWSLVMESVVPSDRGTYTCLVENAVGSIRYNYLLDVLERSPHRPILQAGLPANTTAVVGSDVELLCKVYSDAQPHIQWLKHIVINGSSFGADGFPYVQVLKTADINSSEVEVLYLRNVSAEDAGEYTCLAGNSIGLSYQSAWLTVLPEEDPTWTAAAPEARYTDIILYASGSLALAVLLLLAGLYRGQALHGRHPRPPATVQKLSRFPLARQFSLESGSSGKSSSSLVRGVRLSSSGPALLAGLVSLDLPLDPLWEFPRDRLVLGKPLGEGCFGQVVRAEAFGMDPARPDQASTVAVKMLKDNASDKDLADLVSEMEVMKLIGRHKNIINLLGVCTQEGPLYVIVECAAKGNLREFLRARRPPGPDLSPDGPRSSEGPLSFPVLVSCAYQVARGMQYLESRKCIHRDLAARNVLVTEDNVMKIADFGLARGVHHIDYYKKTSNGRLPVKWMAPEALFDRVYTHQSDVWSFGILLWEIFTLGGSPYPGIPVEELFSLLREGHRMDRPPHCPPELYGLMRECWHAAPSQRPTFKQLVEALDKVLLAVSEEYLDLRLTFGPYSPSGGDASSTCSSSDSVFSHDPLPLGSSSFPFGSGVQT
Sequence of Fibroblast growth factor receptor 3 (Homo sapiens) (P22607 23-806 limits assumed): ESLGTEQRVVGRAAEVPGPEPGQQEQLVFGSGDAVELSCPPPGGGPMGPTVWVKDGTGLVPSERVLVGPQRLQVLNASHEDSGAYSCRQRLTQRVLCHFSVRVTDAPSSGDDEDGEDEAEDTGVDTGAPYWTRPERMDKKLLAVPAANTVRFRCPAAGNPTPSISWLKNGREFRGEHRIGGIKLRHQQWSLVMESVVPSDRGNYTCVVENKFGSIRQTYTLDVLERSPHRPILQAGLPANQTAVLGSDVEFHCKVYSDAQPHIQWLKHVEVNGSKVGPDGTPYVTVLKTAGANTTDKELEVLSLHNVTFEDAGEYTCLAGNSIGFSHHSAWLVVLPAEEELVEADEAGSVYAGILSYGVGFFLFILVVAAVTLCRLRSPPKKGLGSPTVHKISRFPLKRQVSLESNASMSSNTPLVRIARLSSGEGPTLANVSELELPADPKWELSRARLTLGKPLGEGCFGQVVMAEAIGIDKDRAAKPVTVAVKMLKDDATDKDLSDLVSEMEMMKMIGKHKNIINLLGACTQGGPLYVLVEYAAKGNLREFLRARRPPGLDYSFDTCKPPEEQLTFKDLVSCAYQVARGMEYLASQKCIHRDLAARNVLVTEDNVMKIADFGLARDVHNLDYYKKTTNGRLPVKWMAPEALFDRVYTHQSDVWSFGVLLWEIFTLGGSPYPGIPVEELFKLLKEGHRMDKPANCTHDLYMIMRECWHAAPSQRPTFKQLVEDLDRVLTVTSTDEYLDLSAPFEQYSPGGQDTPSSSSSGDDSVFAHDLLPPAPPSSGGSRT

Compound: CCC(=O)Nc1ccc(-c2c(-c3ccc(S4(=O)=NCCCCC4)cc3)c3c(N)ncnc3n2C)c(F)c1 (centres undefined)
- IC50 (BaF3 [1]): > 1000 nM
- IC50 (BaF3 [2]): > 1000 nM
- IC50 (BaF3 [3]): > 1000 nM
- IC50 [4]: 1280 nM
- IC50 [5]: 2210 nM
- IC50 (A204): > 10000 nM
- IC50 [6]: > 10000 nM
- IC50 (MDA-MB-453): 4180 nM

Compound: C=CC(=O)Nc1ccc(-c2c(-c3ccc(S(=N)(=O)CC(C)C)cc3)c3c(N)ncnc3n2C)cc1 (centres undefined)
- IC50 (BaF3 [1]): 12.3 nM
- IC50 (BaF3 [2]): > 1000 nM
- IC50 (BaF3 [3]): > 1000 nM

Compound: C=CC(=O)Nc1ccc(-c2c(-c3ccc(S4(=O)=NCCCC4)cc3)c3c(N)ncnc3n2C)cc1 (centres undefined)
- IC50 (BaF3 [1]): 12.1 nM
- IC50 (BaF3 [2]): > 1000 nM
- IC50 (BaF3 [3]): > 1000 nM

Compound: C=C(C)C(=O)Nc1ccc(-c2c(-c3ccc(S4(=O)=NCCCCC4)c(F)c3)c3c(N)ncnc3n2C)cc1 (centres undefined)
- IC50 (BaF3 [1]): 105 nM
- IC50 (BaF3 [2]): > 1000 nM
- IC50 (BaF3 [3]): > 1000 nM

Compound: C=CC(=O)Nc1ccc(-c2c(-c3ccc(S(=N)(=O)CCC)cc3)c3c(N)ncnc3n2C)cc1 (centres undefined)
- IC50 (BaF3 [1]): 70.1 nM
- IC50 (BaF3 [2]): > 1000 nM
- IC50 (BaF3 [3]): > 1000 nM

Compound: C=CC(=O)Nc1ccc(-c2c(-c3ccc(S(C)(=O)=NCC)cc3)c3c(N)ncnc3n2C)cc1 (centres undefined)
- IC50 (BaF3 [1]): 153 nM
- IC50 (BaF3 [2]): > 1000 nM
- IC50 (BaF3 [3]): > 1000 nM

Compound: C=CC(=O)Nc1ccc(-c2c(-c3ccc(S(=O)(CCC)=NC)cc3)c3c(N)ncnc3n2C)cc1 (centres undefined)
- IC50 (BaF3 [1]): 35.5 nM
- IC50 (BaF3 [2]): > 1000 nM
- IC50 (BaF3 [3]): > 1000 nM

Compound: C=C(C)C(=O)Nc1ccc(-c2c(-c3ccc(S4(=O)=NCCCCC4)cc3)c3c(N)ncnc3n2C)cc1F (centres undefined)
- IC50 (BaF3 [1]): 106 nM
- IC50 (BaF3 [2]): > 1000 nM
- IC50 (BaF3 [3]): > 1000 nM

The next compounds have a lower IC50 (BaF3 [1]) than those just listed; values first:

- IC50 (BaF3 [1]): 1.5 nM
- IC50 (BaF3 [2]): 176 nM
- IC50 (BaF3 [3]): > 1000 nM
Compound: C=CC(=O)Nc1ccc(-c2c(-c3ccc(S4(=O)=NCCCCC45CCC5)cc3)c3c(N)ncnc3n2C)cc1 (centres undefined)

- IC50 (BaF3 [1]): 2.8 nM
- IC50 (BaF3 [2]): > 1000 nM
- IC50 (BaF3 [3]): > 1000 nM
- inhibition [7]: 14.7%
- inhibition [8]: 101%
- inhibition [9]: 13.7%
- inhibition [10]: 5.85%
- inhibition [11]: Dose-dependent-effect
- inhibition [12]: Dose-dependent-effect
- inhibition [13]: Dose-dependent-effect
- inhibition [14]: Dose-dependent-effect
- IC50 (MDA-MB-453): 2850 nM
- half-life [15]: 52.2 min
- Cmax [16]: 4700 ng/mL
- clearance [17]: 13.2 mL/min/kg
- AUC(0-t) [18]: 1270 ng·h/mL
- MRT last [19]: 28.8 min
- half-life [20]: 64.8 min
- Cmax [21]: 2910 ng/mL
- AUC(0-t) [22]: 3650 ng·h/mL
- MRT last [23]: 87.6 min
- bioavailability [24]: 29%
Compound: C=C(C)C(=O)Nc1ccc(-c2c(-c3ccc(S4(=O)=NCCCCC4)cc3)c3c(N)ncnc3n2C)c(F)c1 (centres undefined)
- IC50 [4]: 6.7 nM
- IC50 [5]: 12.6 nM
- IC50 (A204): 2380 nM
- IC50 [6]: 782 nM

- IC50 (BaF3 [1]): 1.1 nM
- IC50 (BaF3 [2]): 307 nM
- IC50 (BaF3 [3]): > 1000 nM
Compound: C=CC(=O)Nc1ccc(-c2c(-c3ccc(S4(=O)=NCCCCC4)cc3)c3c(N)ncnc3n2C)cc1 (centres undefined)
- Ratio IC50 [25]: >279

- IC50 (BaF3 [1]): 3.7 nM
- IC50 (BaF3 [2]): 336 nM
- IC50 (BaF3 [3]): > 1000 nM
Compound: C=CC(=O)Nc1ccc(-c2c(-c3ccc(S(=N)(=O)C4CCCCCC4)cc3)c3c(N)ncnc3n2C)cc1 (centres undefined)

- IC50 (BaF3 [1]): 6.6 nM
- IC50 (BaF3 [2]): 885 nM
- IC50 (BaF3 [3]): > 1000 nM
Compound: C=CC(=O)Nc1ccc(-c2c(-c3ccc(S(=N)(=O)C4CCCC4)cc3)c3c(N)ncnc3n2C)cc1 (centres undefined)

- IC50 (BaF3 [1]): 2 nM
- IC50 (BaF3 [2]): 19.8 nM
- IC50 (BaF3 [3]): > 1000 nM
- IC50 (MDA-MB-453): 150 nM
Compound: CCN1C(=O)N(c2c(F)c(OC)cc(OC)c2F)Cc2cnc3[nH]c(CN4CCOCC4)cc3c21 [PEMIGATINIB]
- IC50 [4]: 1.1 nM
- IC50 [5]: 1.8 nM
- IC50 (A204): 29.2 nM
- IC50 [6]: 10.9 nM

- IC50 (BaF3 [1]): 8.9 nM
- IC50 (BaF3 [2]): 787 nM
- IC50 (BaF3 [3]): > 1000 nM
Compound: C=CC(=O)Nc1ccc(-c2c(-c3ccc(S(=N)(=O)C4CCCCC4)cc3)c3c(N)ncnc3n2C)cc1 (centres undefined)
